Where two headings read alike, the source gives them in different places.
Experiments:
[1] = biological target: T1, Arabidopsis HPPD (SEQ ID NO:53) (Arabidopsis thaliana, UniProt P93836); test: HPPD activity assay (HPLC of homogentisic acid); assay type: biochemical; conditions: for Normalized tolerance index (TI): Arabidopsis HPPD variant Wild-type (reference, SEQ ID: 53); for TI (tolerance index): Arabidopsis HPPD, not normalized; for TI normalized to Arabidopsis HPPD: HPPD enzyme Arabidopsis (reference)
T1 construct: His6 (N); made in house; host or cells: E. coli BL21 (DE3)
T1 sequence (P93836 1-445): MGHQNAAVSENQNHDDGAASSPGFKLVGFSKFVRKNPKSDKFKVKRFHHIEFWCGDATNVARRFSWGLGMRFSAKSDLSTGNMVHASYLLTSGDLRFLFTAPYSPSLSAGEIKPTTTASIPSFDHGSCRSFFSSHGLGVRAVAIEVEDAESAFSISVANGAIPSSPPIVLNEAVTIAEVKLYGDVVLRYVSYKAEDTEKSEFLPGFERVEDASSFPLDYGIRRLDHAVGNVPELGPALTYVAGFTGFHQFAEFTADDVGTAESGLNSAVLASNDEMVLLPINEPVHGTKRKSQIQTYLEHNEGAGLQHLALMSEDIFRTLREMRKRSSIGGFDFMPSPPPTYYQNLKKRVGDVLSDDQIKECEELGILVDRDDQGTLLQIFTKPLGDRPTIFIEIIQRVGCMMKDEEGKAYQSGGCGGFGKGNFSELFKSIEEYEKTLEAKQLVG
Method: The activity assay for HPPD is based on the analysis of homogentisic acid by reversed phase HPLC.
The assay mixture can contain 150 mM potassium phosphate buffer pH 7.0, 50 mM L-ascorbic acid, 100 μM Catalase (Sigma-Aldrich), 1 μM FeSO4 and 0.2 units of purified HPPD enzyme in a total volume of 505 μl. 1 unit is defined as the amount of enzyme that is required to produce 1 nmol of HGA per minute at 20° C.
The reaction is allowed to proceed for 45 min at room temperature. The reaction is stopped by the addition of 50 μl of 4.5 M phosphoric acid. The sample is filtered using a […] pore size PVDF filtration device. 5 μl of the cleared sample is analyzed on an UPLC HSS T3 column (particle size 1.8 μm, dimensions 2, 1×50 mm; Waters) by isocratic elution using 90% 20 mM NaH2PO4 pH 2.2, 10% methanol (v/v).
HGA is detected electrochemically at 750 mV (mode: DC; polarity: positive) and quantified by integrating peak areas (Empower software; Waters).
Inhibitors are dissolved in DMSO (dimethylsulfoxide) to a concentration of 0.5 mM. From this stock solution serial five-fold dilutions are prepared in DMSO, which are used in the assay. The respective inhibitor solution accounts for 1% of the assay volume. Thus, final inhibitor concentrations range from 5 μM to 320 pM, respectively. Activities are normalized by setting the uninhibited enzyme activity to 100%. IC50 values are calculated using non-linear regression.
Using methods which are described in the above examples or well known in the art, purified recombinant wild-type HPPD enzymes are characterized with respect to their kinetic properties and sensitivity towards HPPD inhibiting herbicides. Apparent michaelis constants (Km) and maximal reaction velocities (Vmax) are calculated by non-linear regression with the software GraphPad Prism 5 (GraphPad Software, La Jolla, USA) using a substrate inhibition model. […] Weighted means (by standard error) of Km and IC50 values are calculated from at least three independent experiments. The Cheng-Prusoff equation for competitive inhibition (Cheng, Y. C.; Prusoff, W. H. Biochem Pharmacol 1973, 22, 3099-3108) is used to calculate dissociation constants (Ki).
Field performance of the HPPD enzyme, which is used as a herbicide tolerance trait may depend not only on its lack of sensitivity towards HPPD inhibiting herbicides but also on its activity. To assess the potential performance of a herbicide tolerance trait a tolerance index (TI) is calculated using the following formula: […]
Easy comparison and ranking of each trait is enabled by normalizing tolerance indexes on Arabidopsis wild-type HPPD.

[2] = tested on: Arabidopsis plants, transgene none (WT); test: Greenhouse herbicide spray test; assay type: in vivo, Arabidopsis thaliana; conditions: two weeks after treatment
Description: (§1) For post emergence treatment, the test plants are first grown to a height of 3 to 15 cm, depending on the plant habit, and only then treated with the herbicides. For this purpose, the test plants are either sown directly and grown in the same containers, or they are first grown separately and transplanted into the test containers a few days prior to treatment.
(§2) Herbicide injury scoring is done 2-3 weeks after treatment and is rated on a scale of 0 to 100%, 0% being no injury and 100% being complete death.
(§3) Transgenic Arabidopsis plants were sprayed with a range of doses from 0.78-6.25 g/ha of different HPPD-inhibiting herbicides and injury evaluations were taken two weeks after treatment.

[3] = tested on: transgenic Arabidopsis plants (T2) AtHPPD F381I; test: Greenhouse herbicide spray test; assay type: in vivo, Arabidopsis thaliana; conditions: two weeks after treatment
Description: as §1, §2, §3

[4] = tested on: transgenic Arabidopsis plants (T2) AtHPPD M335H, P336A, E363Q; test: Greenhouse herbicide spray test; assay type: in vivo, Arabidopsis thaliana; conditions: two weeks after treatment
Description: as §1, §2, §3

[5] = tested on: transgenic Arabidopsis plants (T2) AtHPPD M335Y, P336A, E363Q; test: Greenhouse herbicide spray test; assay type: in vivo, Arabidopsis thaliana; conditions: two weeks after treatment
Description: as §1, §2, §3

[6] = tested on: transgenic Arabidopsis plants (T2) HvHPPD L320H, P321A; test: Greenhouse herbicide spray test; assay type: in vivo, Arabidopsis thaliana; conditions: two weeks after treatment
Description: as §1, §2, §3

[7] = tested on: transgenic Arabidopsis plants (T2) PtHPPD WT (Picrophilus HPPD); test: Greenhouse herbicide spray test; assay type: in vivo, Arabidopsis thaliana; conditions: for Injury evaluation: Arabidopsis T2 PtHPPD WT, two weeks after treatment
Description: as §1, §2, §3

[8] = tested on: transgenic Arabidopsis plants (T2) HvHPPD L320H; assay type: in vivo, Arabidopsis thaliana; conditions: for Injury evaluation: Arabidopsis T2 HvHPPD L320H, two weeks after treatment
Description: as §1, §2, §3

[9] = Table 18, no transgene, 0.78 g/ha
[10] = Table 18, no transgene, 1.56 g/ha
[11] = Table 18, no transgene, 3.125 g/ha
[12] = Table 18, no transgene, 6.25 g/ha
[13] = Table 19, no transgene, 0.78 g/ha
[14] = Table 19, no transgene, 1.56 g/ha
[15] = Table 19, no transgene, 3.125 g/ha
[16] = Table 19, no transgene, 6.25 g/ha

Row | SMILES | Normalized tolerance index (TI) [1] | TI (tolerance index) [1] | TI normalized to Arabidopsis HPPD [1] | Injury evaluation [2, 9] | Injury evaluation [2, 10] | Injury evaluation [2, 11] | Injury evaluation [2, 12] | Injury evaluation [2, 13] | Injury evaluation [2, 14] | Injury evaluation [2, 15] | Injury evaluation [2, 16] | Injury evaluation ([3]; 1.56 g/ha) | Injury evaluation ([3]; 3.125 g/ha) | Injury evaluation ([3]; 6.25 g/ha) | Injury evaluation ([4]; 0.78 g/ha) | Injury evaluation ([4]; 1.56 g/ha) | Injury evaluation ([4]; 3.125 g/ha) | Injury evaluation ([4]; 6.25 g/ha) | Injury evaluation ([5]; 0.78 g/ha) | Injury evaluation ([5]; 1.56 g/ha) | further results
1 | CS(=O)(=O)c1ccc(C(=O)C2C(=O)CCCC2=O)c([N+](=O)[O-])c1 [Inhibitor 2, 2-(4-methylsulfonyl-2-nitro-benzoyl)cyclohexane-1,3-dione] | 1 | 3.6E−2 | 1 | 78% | 95% | 100% | 99% | 93% | 99% | 100% | 100% | 20% | 25% | 78% | 3% | 0% | 13% | 12% | 5% | 12% | Ki [1]: 36 nM; Injury evaluation ([5]; 3.125 g/ha): 21%; Injury evaluation ([5]; 6.25 g/ha): 38%; Injury evaluation ([6]; 0.78 g/ha): 0%; Injury evaluation ([6]; 1.56 g/ha): 0%; Injury evaluation ([6]; 3.125 g/ha): 0%; Injury evaluation ([6]; 6.25 g/ha): 0%; Injury evaluation ([7]; 0.78 g/ha): 0%; Injury evaluation ([7]; 1.56 g/ha): 0%; Injury evaluation ([7]; 3.125 g/ha): 3%; Injury evaluation ([7]; 6.25 g/ha): 0%; leaf damage (in words) ([7]; Arabidopsis overexpressing Picrophilus HPPD (SEQ-ID:40), tested application rates 0.78-6.25 g/ha): no leaf damages could be observed; resistance (in words) ([8]; Arabidopsis HvHPPD L320H, 0.78-6.25 g/ha): resistant; Injury evaluation ([8]; 0.78 g/ha): 0%; Injury evaluation ([8]; 1.56 g/ha): 0%; Injury evaluation ([8]; 3.125 g/ha): 0%; Injury evaluation ([8]; 6.25 g/ha): 0%
2 | COCCOCc1nc(C(F)(F)F)ccc1C(=O)C1=C(O)C2CCC(C2)C1=O (stereo not drawn) [Inhibitor 3, 2-hydroxy-3-[2-(2-methoxyethoxymethyl)-6-(trifluoromethyl)pyridine-3-carbonyl]bicyclo[3.2.1]oct-2-en-4-one] | 1 |  | 1 |  |  |  |  |  |  |  |  |  |  |  |  |  |  |  |  |  | 
3 | CS(=O)(=O)c1ccc(C(=O)C2C(=O)CCCC2=O)c(Cl)c1COCC(F)(F)F [Inhibitor 4, 2-[2-chloro-4-methylsulfonyl-3-(2,2,2-trifluoroethoxymethyl)benzoyl]cyclohexane-1,3-dione] | 1 |  | 1 |  |  |  |  |  |  |  |  |  |  |  |  |  |  |  |  |  | 
4 | Cc1c(C(=O)c2cnn(C)c2O)ccc(S(C)(=O)=O)c1C1=NOCC1 [Inhibitor 1, [3-(4,5-dihydroisoxazol-3-yl)-2-methyl-4-methylsulfonyl-phenyl]-(5-hydroxy-1-methyl-pyrazol-4-yl)methanone] | 1 | 9.5E−4 | 1 | 89% | 99% | 99% | 100% | 85% | 88% | 96% | 99% | 43% | 55% | 70% | 0% | 10% | 15% | 15% | 12% | 21% | Injury evaluation ([5]; 3.125 g/ha): 42%; Injury evaluation ([5]; 6.25 g/ha): 68%; Injury evaluation ([6]; 0.78 g/ha): 0%; Injury evaluation ([6]; 1.56 g/ha): 0%; Injury evaluation ([6]; 3.125 g/ha): 0%; Injury evaluation ([6]; 6.25 g/ha): 0%; Injury evaluation ([7]; 0.78 g/ha): 13%; Injury evaluation ([7]; 1.56 g/ha): 17%; Injury evaluation ([7]; 3.125 g/ha): 62%; Injury evaluation ([7]; 6.25 g/ha): 99%; fold less susceptible compared to the control ([7]; Arabidopsis expressing Picrophilus HPPD, dose of 3,125 g/ha): 1.6 fold; fold tolerance compared to the control ([7]; Arabidopsis expressing Picrophilus HPPD, two lowest application rates): 6.8 fold; fold increased tolerance ([8]; Arabidopsis HvHPPD L320H, lowest concentration tested): 6.5 fold; Injury evaluation ([8]; 0.78 g/ha): 13%; Injury evaluation ([8]; 1.56 g/ha): 57%; Injury evaluation ([8]; 3.125 g/ha): 68%; Injury evaluation ([8]; 6.25 g/ha): 94%

— patent US12065654B2, “Plants having increased tolerance to herbicides” (BASF SE, priority 2014, dated 2024)
